The record followed here is ChEMBL document CHEMBL5150018, “Subtilisin-like Serine Protease 1 (SUB1) as an Emerging Antimalarial Drug Target: Current Achievements in Inhibitor Discovery” (J Med Chem, 2022).

Molecules are shown by their SMILES. pEC50, pIC50, pKi: −log10 of the molar value. *1 amine or outer side, *2 acyl side, *3 side chain or, on linkers, in order; H or OH if unused. Where a SMILES comes first, the peptide text is derived from it. [ ]: non-standard residue; d: D form. The star is where a group is joined. Abu(ψCOCO) = CC[C@H](N[*:1])C(=O)C(=O)[*:2]; X1 = NC(=O)CC[C@H](N[*:1])C(=O)C(=O)[*:2]; X2 = C[C@H](N[*:1])C(=O)C(F)(F)C(=O)[*:2]; Pentanoyl(4-Me) = CC(C)CCC(=O)*; Bn = c1ccc(C*)cc1; CF3 = FC(F)(F)*; NHcPr = C1CC1N*

In test [1] the test system is Plasmodium falciparum. In words: Antimalarial activity against Plasmodium falciparum 3D7 assessed as inhibition of parasitic growth measured after 48 hrs. The format is functional, organism-based. The following applies: 3D7, 48 h.
The test system of test [2] is Plasmodium falciparum. Briefly: Antimalarial activity against Plasmodium falciparum Dd2 assessed as inhibition of parasitic growth measured after 48 hrs. The format is functional, organism-based. The following applies: Dd2, 48 h.
The target of test [3] is T1, Subtilisin-like protease 1 (Plasmodium falciparum, UniProt O61142).
T1 sequence (O61142 whole entry): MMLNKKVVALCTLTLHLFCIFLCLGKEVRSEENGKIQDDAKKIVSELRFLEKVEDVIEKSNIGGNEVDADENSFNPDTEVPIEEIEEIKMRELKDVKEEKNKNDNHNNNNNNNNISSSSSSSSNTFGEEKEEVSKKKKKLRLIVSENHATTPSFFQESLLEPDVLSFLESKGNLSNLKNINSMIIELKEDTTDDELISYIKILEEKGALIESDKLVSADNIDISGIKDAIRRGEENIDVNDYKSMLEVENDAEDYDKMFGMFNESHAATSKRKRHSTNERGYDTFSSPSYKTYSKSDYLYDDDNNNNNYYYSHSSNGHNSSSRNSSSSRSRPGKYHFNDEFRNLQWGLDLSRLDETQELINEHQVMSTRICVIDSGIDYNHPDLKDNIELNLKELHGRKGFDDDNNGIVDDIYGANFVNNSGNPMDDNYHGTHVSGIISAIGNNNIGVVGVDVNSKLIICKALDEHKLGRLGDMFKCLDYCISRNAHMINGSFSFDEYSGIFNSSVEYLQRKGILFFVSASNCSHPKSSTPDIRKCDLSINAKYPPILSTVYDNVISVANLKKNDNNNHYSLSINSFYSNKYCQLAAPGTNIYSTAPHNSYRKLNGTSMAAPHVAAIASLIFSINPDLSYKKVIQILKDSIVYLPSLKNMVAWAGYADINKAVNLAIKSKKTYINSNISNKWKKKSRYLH
In words: Binding affinity to Plasmodium falciparum SUB1 using KLVSADNIDIS peptide as substrate by FRET assay.

Test [4] addresses T1, Subtilisin-like protease 1. In words: Inhibition of Plasmodium falciparum SUB1.
Test [5] concerns the target T1, Subtilisin-like protease 1. In words: Inhibition of recombinant Plasmodium falciparum SUB1 using SERA4st1F-6R1 as substrate by fluorescence spectrophotometer.
Test [6] is described as follows: Inhibition of recombinant C-terminal 6-His tagged Plasmodium vivax SUB1 expressed in baculovirus expression system.
Test [7] has as its target T1, Subtilisin-like protease 1. In words: Inhibition of recombinant C-terminal 6-His tagged Plasmodium falciparum SUB1 expressed in baculovirus expression system.
In test [8] the test system is Plasmodium falciparum. In words: Antimalarial activity against Plasmodium falciparum 3D7 assessed as inhibition of parasite growth incubated for 96 hrs by SYBR Green dye based assay. The format is functional, organism-based. Particulars: 3D7, 96 h.
The nature of test [9]: Inhibition of Plasmodium vivax SUB1.
In test [10] the test system is Plasmodium falciparum. In words: Antimalarial activity against synchronized Plasmodium falciparum 3D7 infected in human RBC assessed as inhibition of cell invasion incubated for 4 to 8 hrs by Giemsa staining based microscopic analysis. The format is functional. The following applies: 3D7, Erythrocyte, time 4-8 hrs, read-out: ED50 (the source's name).
Test [11] deals with Plasmodium falciparum. In words: Antimalarial activity against synchronized Plasmodium falciparum 3D7 infected in human RBC assessed as inhibition of parasite growth at schizont stage incubated for 4 to 8 hrs by Giemsa staining based microscopic analysis. The format is functional. Particulars: 3D7, Erythrocyte, time 4-8 hrs, read-out: ED50 (the source's name).
Test [12] is described as follows: Inhibition of Bacillus licheniformis Subtilisin A.
A short description of test [13]: Inhibition of recombinant Plasmodium knowlesi SUB1 using SERA4st1F-6R1 as substrate by fluorescence spectrophotometer.
Test [14] can be described thus: Inhibition of recombinant Plasmodium vivax SUB1 using SERA4st1F-6R1 as substrate by fluorescence spectrophotometer.
In test [15] the target is T1, Subtilisin-like protease 1. Briefly: Inhibition of Plasmodium falciparum SUB1 in intact schizonts.

Turning to `CSc1ccc(CCNC(=O)Cn2ncc3c([nH]c4ccccc43)c2=O)cc1`, the pIC50 with Plasmodium falciparum [1] and in the test on Plasmodium falciparum [2] was less than 4.30 throughout. The pKi in test [3] was 4.83. On to `COc1ccc(Nc2cc(C)c3cc(NC(=O)c4cc5ccccc5[nH]4)ccc3n2)cc1`, for which the values for the pIC50 with Plasmodium falciparum [1] and with Plasmodium falciparum [2] were 6.43 and 6.35, respectively. For the molecule `COc1cc(Cl)c(C)cc1NC(=O)Cn1c(=O)n(CC(=O)NC2CCCC2)c(=O)c2ccccc21`, the pIC50 with Plasmodium falciparum [1] and in the test with Plasmodium falciparum [2] was less than 4.30 each time. This molecule gave a pKi in test [3] of 4.52. Molecule `CC(=O)N[C@H](C(=O)N[C@H](C(=O)NCC(=O)NC(C)C(=O)C(=O)NCCC(=O)O)[C@@H](C)O)C1CCCC1` (stereo not given in full) had a pIC50 in test [4] of 6.43.

For the molecule `Clc1cc(Nc2nc3ccccc3nc2Nc2ccc(Br)c(Cl)c2)ccc1Br`, the pIC50 in test [5] was 4.85. Regarding `CC[C@H](NC(=O)[C@H](C)NC(=O)[C@@H](NC(=O)[C@@H](NC(=O)[C@H](CCCCN)NC(C)=O)[C@@H](C)CC)[C@@H](C)O)C(=O)C(=O)NC1CC1` (Ac-KITA[Abu(ψCOCO)]-NHcPr), the negative logarithm of the IC50 (pIC50) in test [6] is 4.92; in test [7], 5.22. Take `CC(=O)N[C@H](C(=O)N[C@H](C(=O)NCC(=O)N[C@@H](C)B(O)O)[C@@H](C)O)C1CCCC1`: the pIC50 in test [4] is 5.03. The pEC50 in the test with Plasmodium falciparum [8] is 5.64. On to `CC(C)[C@H](NC(=O)Cc1ccccc1)C(=O)NCC(=O)N[C@@H](C)C(=O)C(F)(F)C(=O)NCC(=O)O`, for which the pIC50 in test [5] was 6.00. On the same count and under the same terms, to `CS(=O)(=O)Nc1cc2nc(Nc3ccc(Br)cc3)c(Nc3ccc(Br)cc3)nc2cc1Cl` belongs 4.96; to `CC[C@H](C)[C@H](NC(C)=O)C(=O)N[C@H](C(=O)N[C@@H](C)C(=O)N[C@@H](C)C(=O)C(F)(F)C(=O)O)[C@@H](C)O`, less than 4.30. The molecule `CC(=O)N[C@H](C(=O)N[C@H](C(=O)NCC(=O)N[C@@H](C)B(O)O)C(C)C)C1CCCC1` showed a pIC50 in [4] of 5.24. Moreover, the pEC50 with Plasmodium falciparum [8] is 6.59.

As to `CC[C@H](C)[C@H](NC(C)=O)C(=O)N[C@H](C(=O)NCC(=O)N[C@@H](C)B(O)O)[C@@H](C)O`, the pIC50 in test [4] is 7.16. In the test on Plasmodium falciparum [8], the pEC50 was 5.74.

For `CCc1cccc(NC(=O)c2ccc3c(=O)n4nc(Nc5cc(C)ccc5C)sc4nc3c2)c1`, the pIC50 in the test with Plasmodium falciparum [1] was 4.77; in the test on Plasmodium falciparum [2], 4.65. In test [3], this molecule gave a pKi of 4.52. As for `CC[C@H](C)[C@H](NC(=O)[C@H](CCCCN)NC(=O)CCC(C)C)C(=O)N[C@H](C(=O)N[C@@H](C)C(=O)N[C@@H](CCC(N)=O)C(=O)C(=O)N[C@@H](CC(=O)O)C(=O)N[C@@H](CC(=O)O)C(=O)N[C@@H](CCC(N)=O)C(=O)N[C@@H](CCC(N)=O)C(N)=O)[C@@H](C)O` ({Pentanoyl(4-Me)}-KITA[X1]DDQQ-NH2), the pIC50 in test [4] is 4.75; in test [9], 4.98. For the molecule `CC[C@H](C)[C@H](NC(C)=O)C(=O)N[C@H](C(=O)NCC(=O)N[C@@H](C)C(=O)C(F)(F)C(=O)NCC(=O)O)C(C)C` (Ac-IVG[X2]G-OH), in test [5], the pIC50 is 6.60. `Oc1ccc(C2Oc3c(c(O)cc4c3C3c5c(O)cc(O)c(O)c5OC(c5ccc(O)c(O)c5)(O4)C3O)CC2O)cc1O` (stereo not given): the pEC50 was 4.60 in the test on Plasmodium falciparum [10] and 3.97 in the test with Plasmodium falciparum [11]. Take `CC1(C)CC[C@]2(C(=O)O)CC[C@]3(C)C(=CC[C@@H]4[C@@]5(C)C[C@@H](O)[C@H](O)C(C)(C)[C@@H]5CC[C@]43C)[C@@H]2C1` [MASLINIC ACID]: the pIC50 in test [12] is 4.23. On to `O=C(Nc1ccc(-c2nc3cc(NC(=O)c4ccccc4)ccc3[nH]2)cc1)c1ccccc1`, for which the pIC50 with Plasmodium falciparum [1] is 5.96; in the test with Plasmodium falciparum [2], 5.48. Moreover, the pKi in test [3] was 5.12.

`CC[C@H](C)[C@H](NC(C)=O)C(=O)N[C@H](C(=O)N[C@@H](C)C(=O)N[C@@H](C)C(=O)C(F)(F)F)[C@@H](C)OCc1ccccc1` (Ac-IT(Bn)AA-CF3): the pIC50 in test [5] is less than 4.30. Turning to `Nc1cc2nc(Nc3ccc(Br)cc3)c(Nc3ccc(Br)cc3)nc2cc1Cl`, the pIC50 in test [5] is 4.77.

For `CC(=O)N[C@H](C(=O)N[C@H](C(=O)NCC(=O)N[C@H]1CCOB1O)[C@@H](C)O)C1CCCC1`, the pIC50 in test [4] is 5.34. Moreover, in the test with Plasmodium falciparum [8], the pEC50 was 4.82.

As for `CC[C@H](C)[C@H](NC(=O)[C@H](CCCCN)NC(C)=O)C(=O)N[C@H](C(=O)N[C@@H](C)C(=O)N[C@@H](C)C(=O)C(F)(F)C(=O)NCC(=O)O)[C@@H](C)O` (Ac-KITA[X2]G-OH), the pIC50 in test [13] is 5.95; in test [14], 5.60. Take `O=C(CCCCCNC(=O)CCCC[C@H]1SC[C@H]2NC(=O)N[C@H]21)NCCCCCC(=O)Nc1ccc2c(Cl)c(OCCc3ccccc3)oc(=O)c2c1`: in test [15], the pIC50 is 4.74. Regarding `CC[C@H](C)[C@H](NC(C)=O)C(=O)N[C@H](C(=O)N[C@@H](C)C(=O)N[C@@H](C)C(=O)C(F)(F)C(=O)NCC(=O)O)[C@@H](C)O` (Ac-ITA[X2]G-OH), the pIC50 in test [13] was 6.17; in [14] it was 5.66. As to `Brc1ccc(Nc2nc3ccccc3nc2Nc2ccc(Br)cc2)cc1`, in test [5], the pIC50 was 5.00.

As to `CC(=O)N[C@H](C(=O)N[C@@H](C)C(=O)NCC(=O)N[C@@H](C)B(O)O)C1CCCC1`, in test [4], the pIC50 is 5.11. The pEC50 with Plasmodium falciparum [8] is 6.47.

As usually defined, the pIC50 is −log10 of the IC50, conventionally taken in molar units. Broadly, the pKi is the Ki on a negative log10 scale, so that one unit is a factor of ten.
